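Following 48 hours of exposure in 96-well plates, responses at five concentrations were used to interpolate endpoints linearly. TGI: total growth inhibition.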
Assays:
Assay in all cases: NCI anticancer screen, dose series, 48 h
HOP-92 NSCLC = test system: HOP-92 NSCLC
UO-31 renal = test system: UO-31 renal
OVCAR-3 ovarian = test system: OVCAR-3 ovarian
IGROV1 ovarian = test system: IGROV1 ovarian
EKVX NSCLC = test system: EKVX NSCLC
RPMI-8226 leukemia = test system: RPMI-8226 leukemia
SK-MEL-5 melanoma = test system: SK-MEL-5 melanoma
ACHN renal = test system: ACHN renal
MDA-N = test system: MDA-N
SN12C renal = test system: SN12C renal
SNB-19 CNS = test system: SNB-19 CNS
MDA-MB-435 = test system: MDA-MB-435
HT29 colon = test system: HT29 colon
SNB-75 CNS = test system: SNB-75 CNS
M14 melanoma = test system: M14 melanoma
COLO 205 colon = test system: COLO 205 colon
NCI-H522 lung = test system: NCI-H522 lung
T-47D breast = test system: T-47D breast
MCF7 breast = test system: MCF7 breast
OVCAR-5 ovarian = test system: OVCAR-5 ovarian
MALME-3M melanoma = test system: MALME-3M melanoma
MDA-MB-231 breast = test system: MDA-MB-231 breast
CAKI-1 renal = test system: CAKI-1 renal
SK-MEL-28 melanoma = test system: SK-MEL-28 melanoma
A549 NSCLC = test system: A549 NSCLC
MOLT-4 leukemia = test system: MOLT-4 leukemia
SR leukemia = test system: SR leukemia
RXF 393 renal = test system: RXF 393 renal
NCI-H226 lung = test system: NCI-H226 lung
SF-268 CNS = test system: SF-268 CNS
LOX IMVI melanoma = test system: LOX IMVI melanoma
HL-60(TB) leukemia = test system: HL-60(TB) leukemia
K-562 leukemia = test system: K-562 leukemia
UACC-257 melanoma = test system: UACC-257 melanoma
TK-10 renal = test system: TK-10 renal
SK-OV-3 ovarian = test system: SK-OV-3 ovarian
SW-620 colon = test system: SW-620 colon
SF-539 CNS = test system: SF-539 CNS
DU-145 prostate = test system: DU-145 prostate
HCT-116 colon = test system: HCT-116 colon
CCRF-CEM leukemia = test system: CCRF-CEM leukemia
HOP-62 NSCLC = test system: HOP-62 NSCLC
SF-295 CNS = test system: SF-295 CNS
KM12 colon = test system: KM12 colon
HS 578T breast = test system: HS 578T breast
OVCAR-4 ovarian = test system: OVCAR-4 ovarian
786-0 renal = test system: 786-0 renal
OVCAR-8 ovarian = test system: OVCAR-8 ovarian
U251 CNS = test system: U251 CNS
SK-MEL-2 melanoma = test system: SK-MEL-2 melanoma
PC-3 prostate = test system: PC-3 prostate
A498 renal = test system: A498 renal

Work on `O=C1C(=c2cc3c(c4ccccc24)=NC24CCCCC2C(c2ccccc2)C=C(c2ccccc2)N34)C(=O)c2ccccc21` (configuration not stated) yielded a TGI (HOP-92 NSCLC) of over 100 µM, a TGI (UO-31 renal) of over 100 µM and a TGI (OVCAR-3 ovarian) of over 100 µM. For the same molecule, the TGI (IGROV1 ovarian) was over 100 µM, the TGI (EKVX NSCLC) was over 100 µM and the TGI (RPMI-8226 leukemia) was 53.8 µM. The TGI (SK-MEL-5 melanoma) was over 100 µM, the TGI (ACHN renal) was over 100 µM and the TGI (MDA-N) was over 100 µM. For the same molecule, the TGI (SN12C renal) was over 100 µM, the TGI (SNB-19 CNS) was over 100 µM and the TGI (MDA-MB-435) was 70.8 µM. For the same molecule, the TGI (HT29 colon) was over 100 µM, the TGI (SNB-75 CNS) was over 100 µM and the TGI (M14 melanoma) was over 100 µM. The TGI (COLO 205 colon) was over 100 µM, the TGI (NCI-H522 lung) was 47.5 µM and the TGI (T-47D breast) was over 100 µM. For the same molecule, the TGI (MCF7 breast) was over 100 µM, the TGI (OVCAR-5 ovarian) was over 100 µM and the TGI (MALME-3M melanoma) was over 100 µM. For the same molecule, the TGI (MDA-MB-231 breast) was over 100 µM, the TGI (CAKI-1 renal) was over 100 µM and the TGI (SK-MEL-28 melanoma) was over 100 µM. The TGI (A549 NSCLC) was over 100 µM, the TGI (MOLT-4 leukemia) was 64.7 µM and the TGI (SR leukemia) was 79.7 µM. It also gave a TGI (RXF 393 renal) of 49 µM, a TGI (NCI-H226 lung) of over 100 µM and a TGI (SF-268 CNS) of over 100 µM. It also gave a TGI (LOX IMVI melanoma) of over 100 µM, a TGI (HL-60(TB) leukemia) of over 100 µM and a TGI (K-562 leukemia) of over 100 µM. For the same molecule, the TGI (UACC-257 melanoma) was over 100 µM, the TGI (TK-10 renal) was over 100 µM and the TGI (SK-OV-3 ovarian) was over 100 µM. For the same molecule, the TGI (SW-620 colon) was over 100 µM, the TGI (SF-539 CNS) was over 100 µM and the TGI (DU-145 prostate) was over 100 µM. The TGI (HCT-116 colon) was over 100 µM, the TGI (CCRF-CEM leukemia) was over 100 µM and the TGI (HOP-62 NSCLC) was over 100 µM. It also gave a TGI (SF-295 CNS) of over 100 µM, a TGI (KM12 colon) of over 100 µM and a TGI (HS 578T breast) of over 100 µM. For the same molecule, the TGI (OVCAR-4 ovarian) was 68.3 µM, the TGI (786-0 renal) was over 100 µM and the TGI (OVCAR-8 ovarian) was over 100 µM. It also gave a TGI (U251 CNS) of over 100 µM, a TGI (SK-MEL-2 melanoma) of over 100 µM and a TGI (PC-3 prostate) of over 100 µM. The TGI (A498 renal) was over 100 µM.

Reference: PubChem BioAssay (NCI)
